Among the data in patent publication US7687522B2, “Substituted pyridines and pyrimidines and their use in treatment of cancer” (Amgen Inc., priority 2006, dated 2010) are Ki values, retold here.

Where only a bound is given, the exact number is not on record here.

In this assay the target is T1, c-Met (Homo sapiens, UniProt P08581).
T1 construct: A PCR product covering residues 1058-1365 of c-Met (c-Met kinase domain) is generated; made in house; host or cells: baculovirus-infected (insect) cells
T1 sequence (P08581 1058-1365): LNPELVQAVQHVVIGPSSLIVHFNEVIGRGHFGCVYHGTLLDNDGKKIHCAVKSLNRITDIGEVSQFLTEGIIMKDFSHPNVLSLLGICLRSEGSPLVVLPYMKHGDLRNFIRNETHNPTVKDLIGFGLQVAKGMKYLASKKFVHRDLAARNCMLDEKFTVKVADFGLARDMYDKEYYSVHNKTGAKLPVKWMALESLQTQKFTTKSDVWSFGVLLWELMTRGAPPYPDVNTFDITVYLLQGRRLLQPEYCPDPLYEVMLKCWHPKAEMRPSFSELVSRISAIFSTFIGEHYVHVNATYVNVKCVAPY
Kind of assay: c-Met receptor assay (HTRF kinase assay with GST-cMet (P) enzyme, gastrin substrate). It is filed as biochemical. How it is done: A PCR product covering residues 1058-1365 of c-Met (c-Met kinase domain) is generated as described in WO 06/116,713 the entirety of which is incorporated herein by reference.
Baculovirus cells are broken in 5× (volume/weight) of Lysis Buffer (50 mM HEPES, pH 8.0, 0.25 M NaCl, 5 mM mercaptoethanol, 10% glycerol plus Complete Protease Inhibitors (Roche (#10019600), 1 tablet per 50 mL buffer). The lysed cell suspension is centrifuged at 100,000×g (29,300 rpm) in a Beckman ultracentrifuge Ti45 rotor for 1 h. The supernatant is incubated with 10 ml of Glutathione Sepharose 4B from Amersham Biosciences (#27-4574-01). Incubation is carried out overnight in a cold room (approximately 8° C.). The resin and supernatant is poured into an appropriately sized disposable column and the flow through supernatant was collected. The resin is washed with 10 column volumes (100 mL) of Lysis Buffer. The GST-cMET is eluted with 45 mL of 10 mM Glutathione (Sigma #G-4251) in Lysis Buffer. The elution is collected as 15 mL fractions. Aliquots of the elution fractions are run on SDS PAGE (12% Tris Glycine gel, Invitrogen, #EC6005BOX). The gel is stained with 0.25% Coomassie Blue stain. Fractions with GST-cMET are concentrated with a Vivaspin 20 mL Concentrator (#VS2002; […]) to a final volume less than 2.0 ml. The concentrated GST-cMET solution is applied to a Superdex 75 16/60 column (Amersham Biosciences # 17-1068-01) equilibrated with 25 mM Tris, pH 7.5, 100 mM NaCl, 10 mM mercaptoethanol, 10% glycerol. The GST-cMET is eluted with an isocratic run of the above buffer, with the eluent collected in 1.0 mL fractions. Fractions with significant OD280 readings are run on another 12% Tris Glycine gel. The peak tubes with GST-cMET are pooled and the OD280 is read with the column buffer listed above as the blank buffer.
Phosphorylation of the purified GST-cMET is performed by incubating the protein for 3 h at RT with the following:
After incubation, the solution is concentrated in a Vivaspin 20 mL Concentrator to a volume less than 2.00 mL. The solution is applied to the same Superdex 75 16/60 column used above after re-equilibration. The GST-cMET is eluted as described above. The elution fractions corresponding to the first eluted peak on the chromatogram are run on a 12% Tris Glycine gel, as above, to identify the fractions with GST-cMET. Fractions are pooled and the OD280 is read with the column buffer used as the blank.
A Kinase reaction Buffer is prepared as follows:
When the assay is carried out, freshly add:
The HTRF buffer contains: 50 mM Tris-HCl (pH 7.5), 100 mM NaCl, 0.1% BSA, 0.05% Tween 20.5 mM EDTA Fresh add SA-APC (PJ25S Phycolink Streptavidin-Allophycocyanin Conjugate, Prozyme Inc.) and Eu-PT66 (Eu-W1024 labeled anti-phosphorotyrosine antibody PT66, AD0069, Lot 168465, Perkin-Elmer Inc.) to reach the final concentration: • 0.1 nM final Eu-PT66 • 11 nM final SA-APC Methods: 1. Dilute GST-cMet (P) enzyme in kinase buffer as follows: Prepare 8 nM GST-cMet (P) working solution (7.32 μM to 8 nM, 915 X, 10 μL to 9.15 mL). In a 96 well clear plate [Costar # 3365] add 100 μL in eleven columns, in one column add 100 μL kinase reaction buffer alone. 2. Assay plate preparation: Use Biomek FX to transfer 10 μL 8 nM GST-cMet (P) enzyme, 48.4 μL kinase reaction buffer, 1.6 μL compound (in DMSO) (Start concentration at 10 mM, 1 mM and 0.1 mM, sequential dilution 1:3 to reach 10 test points) in a 96 well costar clear plate [Costar # 3365], mix several times. Then incubate the plate at RT for 30 min. 3. Prepare Gastrin and ATP working solution in kinase reaction buffer as follows: Prepare 4 μM Gastrin and 16 μM ATP working solution
Use Biomek FX to add 20 μl ATP and Gastrin working solution to the assay plate to start reaction, incubate the plate at RT for 1 h. 4. Transfer 5 μL reaction product at the end of 1 h into 80 μL HTRF buffer in black plate [Costar # 3356], read on Discover after 30 min incubation.
(In general: TR-FRET usually uses a lanthanide donor and a delayed reading to cut background.)
One may read the Ki as a measure of affinity in units of concentration, obtained from inhibition or displacement. Low readings indicate tighter binding, high ones weaker binding. `Cn1c(Nc2ccccc2)ncc(-c2ccc(Oc3ccnc(NC(=O)N4CCCC4)c3)cn2)c1=O` [Example 1, N-(4-(6-(1-methyl-6-oxo-2-(phenylamino)-1,6-dihydropyrimidin-5-yl)pyridin-3-yloxy)pyridin-2-yl)pyrrolidine-1-carboxamide] displayed a Ki of 11 nM. This lies in the double-digit nanomolar range. For `Cn1c(Nc2ccccc2F)ncc(-c2ccc(Oc3ccnc(NC(=S)N4CCCC4)c3)cn2)c1=O` [Example 3, N-(4-(6-(2-(2-fluorophenylamino)-1-methyl-6-oxo-1,6-dihydropyrimidin-5-yl)pyridin-3-yloxy)pyridin-2-yl)pyrrolidine-1-carbothioamide], the Ki is 110 nM. Under `Cn1c(Nc2ccccc2)ncc(-c2ccc(Oc3ccnc(NC(=O)N4CCOCC4)c3)cn2)c1=O` [Example 6, N-(4-(6-(1-methyl-6-oxo-2-(phenylamino)-1,6-dihydropyrimidin-5-yl)pyridin-3-yloxy)pyridin-2-yl)morpholine-4-carboxamide] stands 57 nM; under `CN1CCN(C(=O)Nc2cc(Oc3ccc(-c4cnc(Nc5ccccc5)n(C)c4=O)nc3)ccn2)CC1` [Example 7, 4-methyl-N-(4-(6-(1-methyl-6-oxo-2-(phenylamino)-1,6-dihydropyrimidin-5-yl)pyridin-3-yloxy)pyridin-2-yl)piperazine-1-carboxamide], 87 nM. Consider `Cn1c(Nc2ccc(F)cc2)ncc(-c2ccc(Oc3ccnc(NC(=O)N4CCCC4)c3)cn2)c1=O` [Example 10, N-(4-(6-(2-(4-fluorophenylamino)-1-methyl-6-oxo-1,6-dihydropyrimidin-5-yl)pyridin-3-yloxy)pyridin-2-yl)pyrrolidine-1-carboxamide], for which the inhibition constant Ki stood at 6 nM.

Turning to `Cc1noc(-c2cccc(Nc3nccc(Oc4ccc(-c5cnc(Cc6ccccc6)n(C)c5=O)cc4F)n3)c2)n1` [Example 13, 2-benzyl-5-(3-fluoro-4-(2-(3-(3-methyl-1,2,4-oxadiazol-5-yl)phenylamino)pyrimidin-4-yloxy)phenyl)-3-methylpyrimidin-4(3H)-one], the Ki is over 20000 nM. Under `CNc1nccc(Oc2ccc(-c3cnc(Cc4ccccc4)n(C)c3=O)cc2F)n1` [Example 14, 2-benzyl-5-(3-fluoro-4-(2-(methylamino)pyrimidin-4-yloxy)phenyl)-3-methylpyrimidin-4(3H)-one] stands 2340 nM. `CCn1c(Nc2ccc(F)cc2)ncc(-c2ccc(Oc3ccnc(NC(=O)N4CCC4)c3)c(F)c2)c1=O` [Example 21, N-(4-(4-(1-ethyl-2-(4-fluorophenylamino)-6-oxo-1,6-dihydropyrimidin-5-yl)-2-fluorophenoxy)pyridin-2-yl)azetidine-1-carboxamide] showed a Ki of 12 nM.

`Cn1c(Nc2cccc(F)c2)ncc(-c2ccc(Oc3ccnc(NC(=O)N4CCCC4)c3)cn2)c1=O` [Example 25, N-(4-(6-(2-(3-fluorophenylamino)-1-methyl-6-oxo-1,6-dihydropyrimidin-5-yl)pyridin-3-yloxy)pyridin-2-yl)pyrrolidine-1-carboxamide] registered an inhibition constant (Ki) of 11 nM. The same measure for `Cn1c(Nc2cccc(F)c2)ncc(-c2ccc(Oc3ccnc(NC(=S)N4CCCC4)c3)cn2)c1=O` [Example 26, N-(4-(6-(2-(3-fluorophenylamino)-1-methyl-6-oxo-1,6-dihydropyrimidin-5-yl)pyridin-3-yloxy)pyridin-2-yl)pyrrolidine-1-carbothioamide]: 30 nM.
